Measured values reported in patent publication US20230085307A1, “PYRIDAZINONE COMPOUND AND HERBICIDE” (NISSAN CHEMICAL CORPORATION, priority 2019, published 2023).

Legend:
late watergrass = assay: Test Example 1: herbicidal activity, application before weed generation under submerged conditions (Table 16, symbol A); format: in vivo, late watergrass (Echinochloa oryzicola); details: 320 g/ha applied herbicide
Summary of the method: (§1)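 Emulsion formulation, water-diluted to set dose, was put onto the flooded surface (4 cm depth, alluvial soil) the same day weeds were sown and 2.5-leaf rice transplanted. After 3 weeks at 25-30 °C under glass, each species was rated 0 (≤5% kill) to 5 (≥90% kill).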

Japanese bulrush [1] = assay: Test Example 1: herbicidal activity, application before weed generation under submerged conditions (Table 16, symbol B); format: in vivo, Japanese bulrush (Schoenoplectus juncoides); details: 320 g/ha applied herbicide
Summary of the method: as §1

oval-leafed pondweed [2] = assay: Test Example 1: herbicidal activity, application before weed generation under submerged conditions (Table 16, symbol C); format: in vivo, oval-leafed pondweed (Monochoria vaginalis); details: 320 g/ha applied herbicide
Summary of the method: as §1

Japanese bulrush [3] = assay: Test Example 2: herbicidal activity, application during weed generation under submerged conditions (Table 17, symbol B); format: in vivo, Japanese bulrush (Schoenoplectus juncoides); details: AAH 320 g/ha; application during weed generation, submerged conditions
Procedure: (§2) [Test Example 2] Herbicidal Activity Test by Application during Weed Generation under Submerged Conditions After alluvial soil was placed into 1/10000 are of Wagner pot, water was poured and mixed to form a submerged condition having a water depth of 4 cm. Seeds of late watergrass, Japanese bulrush, and oval-leafed pondweed were sowed in a mixed manner in the aforementioned pot, and the pot was placed in a greenhouse at 25° C. to 30° C. for growth of the plants. When late watergrass, Japanese bulrush, and oval-leafed pondweed were grown to one leaf stage to two leaf stage, the emulsion agent of the compound of the present invention prepared according to Formulation Example 2 was diluted with water so as to achieve a predetermined herbicide amount, and the diluted emulsion agent was applied to the surface of the water. Three weeks after the herbicide application, the effect of the herbicide on each plant was evaluated according to the criteria of Test Example 1.

oval-leafed pondweed [4] = assay: Test Example 2: herbicidal activity, application during weed generation under submerged conditions (Table 17, symbol C); format: in vivo, oval-leafed pondweed (Monochoria vaginalis); details: AAH 320 g/ha; application during weed generation, submerged conditions
Procedure: as §2

barnyard grass [5] = assay: Test Example 3: herbicidal effect by foliage application, Wagner pot (Table 18, symbol H); format: in vivo, barnyard grass (Echinochloa crus-galli); details: 320 g/ha
Summary of the method: (§3)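 Plants were sown in alluvial soil held under 0.1–0.5 cm standing water and grown 14 days in a greenhouse at 25–30 °C. An emulsifiable formulation, water-diluted to the set dose, was then sprayed onto the foliage, and effects were scored three weeks later using previously defined criteria.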

Chinese sprangletop = assay: Test Example 3: herbicidal effect by foliage application, Wagner pot (Table 18, symbol D); format: in vivo, chinese sprangletop (Leptochloa chinensis); details: 320 g/ha
Summary of the method: as §3

rice flat sedge = assay: Test Example 3: herbicidal effect by foliage application, Wagner pot (Table 18, symbol E); format: in vivo, rice flat sedge (Cyperus iria); details: 320 g/ha
Summary of the method: as §3

southern crabgrass [6] = assay: Test Example 4: herbicidal effect by soil treatment (Table 19, symbol F); format: in vivo, southern crabgrass (Digitaria ciliaris); details: amount of applied herbicide 320 g/ha
Summary of the method: (§4)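 Applied as a water-diluted emulsion, the compound was sprayed onto soil covering newly sown seeds. Evaluation came three weeks after application, in a greenhouse held at 25° C. to 30° C.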

green foxtail [7] = assay: Test Example 4: herbicidal effect by soil treatment (Table 19, symbol G); format: in vivo, green foxtail (Setaria viridis); details: amount of applied herbicide 320 g/ha
Summary of the method: as §4

barnyard grass [8] = assay: Test Example 4: herbicidal effect by soil treatment (Table 19, symbol H); format: in vivo, barnyard grass (Echinochloa crus-galli); details: amount of applied herbicide 320 g/ha
Summary of the method: as §4

wild oat [9] = assay: Test Example 4: herbicidal effect by soil treatment (Table 19, symbol I); format: in vivo, wild oat (Avena fatua); details: amount of applied herbicide 320 g/ha
Summary of the method: as §4

blackgrass [10] = assay: Test Example 4: herbicidal effect by soil treatment (Table 19, symbol J); format: in vivo, blackgrass (Alopecurus myosuroides); details: amount of applied herbicide 320 g/ha
Summary of the method: as §4

Italian ryegrass [11] = assay: Test Example 4: herbicidal effect by soil treatment (Table 19, symbol K); format: in vivo, Italian ryegrass (Lolium multiflorum); details: amount of applied herbicide 320 g/ha
Summary of the method: as §4

velvetleaf [12] = assay: Test Example 4: herbicidal effect by soil treatment (Table 19, symbol M); format: in vivo, velvetleaf (Abutilon theophrasti); details: amount of applied herbicide 320 g/ha
Summary of the method: as §4

redroot pigweed [13] = assay: Test Example 4: herbicidal effect by soil treatment (Table 19, symbol N); format: in vivo, redroot pigweed (Amaranthus retroflexus); details: amount of applied herbicide 320 g/ha
Summary of the method: as §4

southern crabgrass [14] = assay: Test Example 5: herbicidal effect by foliage application, plastic box (Table 20, symbol F); format: in vivo, southern crabgrass (Digitaria ciliaris); details: foliage application, 320 g/ha, three weeks after application
Summary of the method: (§5)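 Sow seeds spot-wise in sterilized diluvial soil; cover with ~1.5 cm soil. Grow 14 days in greenhouse, 25° C. to 30° C. Spray foliage with emulsion diluted to predetermined amount. Rate effect after 3 weeks.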

green foxtail [15] = assay: Test Example 5: herbicidal effect by foliage application, plastic box (Table 20, symbol G); format: in vivo, green foxtail (Setaria viridis); details: foliage application, 320 g/ha, three weeks after application
Summary of the method: as §5

barnyard grass [16] = assay: Test Example 5: herbicidal effect by foliage application, plastic box (Table 20, symbol H); format: in vivo, barnyard grass (Echinochloa crus-galli); details: foliage application, 320 g/ha, three weeks after application
Summary of the method: as §5

wild oat [17] = assay: Test Example 5: herbicidal effect by foliage application, plastic box (Table 20, symbol I); format: in vivo, wild oat (Avena fatua); details: foliage application, 320 g/ha, three weeks after application
Summary of the method: as §5

blackgrass [18] = assay: Test Example 5: herbicidal effect by foliage application, plastic box (Table 20, symbol J); format: in vivo, blackgrass (Alopecurus myosuroides); details: foliage application, 320 g/ha, three weeks after application
Summary of the method: as §5

Italian ryegrass [19] = assay: Test Example 5: herbicidal effect by foliage application, plastic box (Table 20, symbol K); format: in vivo, Italian ryegrass (Lolium multiflorum); details: foliage application, 320 g/ha, three weeks after application
Summary of the method: as §5

windgrass = assay: Test Example 5: herbicidal effect by foliage application, plastic box (Table 20, symbol L); format: in vivo, windgrass (Apera spica-venti); details: foliage application, 320 g/ha, three weeks after application
Summary of the method: as §5

velvetleaf [20] = assay: Test Example 5: herbicidal effect by foliage application, plastic box (Table 20, symbol M); format: in vivo, velvetleaf (Abutilon theophrasti); details: foliage application, 320 g/ha, three weeks after application
Summary of the method: as §5

redroot pigweed [21] = assay: Test Example 5: herbicidal effect by foliage application, plastic box (Table 20, symbol N); format: in vivo, redroot pigweed (Amaranthus retroflexus); details: foliage application, 320 g/ha, three weeks after application
Summary of the method: as §5

lambsquarters = assay: Test Example 5: herbicidal effect by foliage application, plastic box (Table 20, symbol O); format: in vivo, lambsquarters (Chenopodium album); details: foliage application, 320 g/ha, three weeks after application
Summary of the method: as §5

chickweed = assay: Test Example 5: herbicidal effect by foliage application, plastic box (Table 20, symbol P); format: in vivo, common chickweed (Stellaria media); details: foliage application, 320 g/ha, three weeks after application
Summary of the method: as §5

persian speedwell = assay: Test Example 5: herbicidal effect by foliage application, plastic box (Table 20, symbol R); format: in vivo, Persian speedwell (Veronica persica); details: foliage application, 320 g/ha, three weeks after application
Summary of the method: as §5

CCOc1ccc(-c2sc3ccccc3c2-c2c(O)c(C)nn(C)c2=O)cc1 [1-013]
Herbicidal effect on A: late watergrass (grade 0-5) (late watergrass): 4 (Herbicidal rate of 70% or more and less than 90%) | Herbicidal effect on B: Japanese bulrush (grade 0-5) (Japanese bulrush [1]): 4 (Herbicidal rate of 70% or more and less than 90%) | Herbicidal effect on C: oval-leafed pondweed (grade 0-5) (oval-leafed pondweed [2]): 3 (Herbicidal rate of 40% or more and less than 70%) | herbicidal effect rating, B: Japanese bulrush (Japanese bulrush [3]): 3 (Herbicidal rate of 40% or more and less than 70%) | herbicidal effect rating, C: oval-leafed pondweed (oval-leafed pondweed [4]): 3 (Herbicidal rate of 40% or more and less than 70%) | herbicidal effect on H (barnyard grass), rating 0-5 (barnyard grass [5]): 5 (Herbicidal rate of 90% or more (almost completely withered)) | herbicidal effect on D (Chinese sprangletop), rating 0-5 (Chinese sprangletop): 1 (Herbicidal rate of 5% or more and less than 20%) | herbicidal effect on E (rice flat sedge), rating 0-5 (rice flat sedge): 5 (Herbicidal rate of 90% or more (almost completely withered)) | herbicidal effect rating, F: southern crabgrass (southern crabgrass [6]): 0 (Herbicidal rate of 5% or less (almost no effect)) | herbicidal effect rating, G: green foxtail (green foxtail [7]): 5 (Herbicidal rate of 90% or more (almost completely withered)) | herbicidal effect rating, H: barnyard grass (barnyard grass [8]): 4 (Herbicidal rate of 70% or more and less than 90%) | herbicidal effect rating, I: wild oat (wild oat [9]): 0 (Herbicidal rate of 5% or less (almost no effect)) | herbicidal effect rating, J: blackgrass (blackgrass [10]): 0 (Herbicidal rate of 5% or less (almost no effect)) | herbicidal effect rating, K: Italian ryegrass (Italian ryegrass [11]): 0 (Herbicidal rate of 5% or less (almost no effect)) | herbicidal effect rating, M: velvetleaf (velvetleaf [12]): 0 (Herbicidal rate of 5% or less (almost no effect)) | herbicidal effect rating, N: redroot pigweed (redroot pigweed [13]): 3 (Herbicidal rate of 40% or more and less than 70%) | herbicidal effect grade, F: southern crabgrass (southern crabgrass [14]): 0 (Herbicidal rate of 5% or less (almost no effect)) | herbicidal effect grade, G: green foxtail (green foxtail [15]): 5 (Herbicidal rate of 90% or more (almost completely withered)) | herbicidal effect grade, H: barnyard grass (barnyard grass [16]): 4 (Herbicidal rate of 70% or more and less than 90%) | herbicidal effect grade, I: wild oat (wild oat [17]): 0 (Herbicidal rate of 5% or less (almost no effect)) | herbicidal effect grade, J: blackgrass (blackgrass [18]): 0 (Herbicidal rate of 5% or less (almost no effect)) | herbicidal effect grade, K: Italian ryegrass (Italian ryegrass [19]): 3 (Herbicidal rate of 40% or more and less than 70%) | herbicidal effect grade, L: windgrass (windgrass): 0 (Herbicidal rate of 5% or less (almost no effect)) | herbicidal effect grade, M: velvetleaf (velvetleaf [20]): 5 (Herbicidal rate of 90% or more (almost completely withered)) | herbicidal effect grade, N: redroot pigweed (redroot pigweed [21]): 3 (Herbicidal rate of 40% or more and less than 70%) | herbicidal effect grade, O: lambsquarters (lambsquarters): 3 (Herbicidal rate of 40% or more and less than 70%) | herbicidal effect grade, P: chickweed (chickweed): 5 (Herbicidal rate of 90% or more (almost completely withered)) | herbicidal effect grade, R: persian speedwell (persian speedwell): 5 (Herbicidal rate of 90% or more (almost completely withered))
